Test results reported in patent publication US11324744B2, “Methods of use and pharmaceutical combinations of histone deacetylase inhibitors and CD20 inhibitory antibodies” (Acetylon Pharmaceuticals Inc., priority 2016, dated 2022).

Key:
CD20 in Raji cells = test: Cell surface abundance of CD20 by staining and flow cytometry in Raji cells; type: cell-based, human; settings: 0.25-4.0 μM, 48 hours, MFI, FIG. 2A/2B
Protocol: (§1) Cells were treated with increasing concentrations of Compound A (i.e., 0.25 μM, 0.5 μM, 1.0 μM, 2.0 μM, and 4.0 μM) for 48 hours and processed for cell surface abundance of CD20 protein and mRNA in Raji cells. The treated Raji cells were stained for IgG2bK-APC and CD20-APC. The dotted line indicates median of DMSO treatment. The quantification of mean fluorescence intensity (MFI) following cell surface staining and flow cytometry of Raji cells is shown in FIG. 2B. Each sample was background subtracted, where the IgG2bK-APC median MFI in Raji cells was used as the background. […] Together, increased CD20 expression triggered by Compound A can be a potential mechanism for the in vivo combination effect on the Raji cell model. Compound A induced CD20 mRNA expression and cell surface abundance of CD20 on Raji cells. That can be a potential mechanism for the synergistic effect of Compound A with rituximab.

CD20 mRNA in Raji cells = test: CD20 mRNA expression relative to RPLP1 in Raji cells; type: cell-based, human; settings: 0.25-4.0 μM, 48 hours, FIG. 2D
Protocol: as §1

CD20 in Jeko cells = test: Cell surface abundance of CD20 by staining and flow cytometry in Jeko cells; type: cell-based; settings: 0.25-4.0 μM, 48 hours, MFI, FIG. 3A/3B
Protocol: (§2) Cells were treated with increasing concentrations of Compound A (i.e., 0.25 μM, 0.5 μM, 1.0 μM, 2.0 μM, and 4.0 μM) for 48 hours and processed for cell surface abundance of CD20 protein and mRNA in Jeko cells. The treated Jeko cells were stained for IgG2bK-APC and CD20-APC. The dotted line indicates median of DMSO treatment. The quantification of mean fluorescence intensity (MFI) following cell surface staining and flow cytometry of Jeko cells is shown in FIG. 3B. Each sample was background subtracted, where the IgG2bK-APC median MFI in Jeko cells was used as the background. […] Compound A induced CD20 mRNA expression and cell surface abundance of CD20 on Jeko cells. That can be a potential mechanism for the synergistic effect of Compound A with rituximab.

CD20 mRNA in Jeko cells = test: CD20 mRNA expression relative to RPLP1 in Jeko cells; type: cell-based; settings: 0.25-4.0 μM, 48 hours, FIG. 3D
Protocol: as §2

O=C(CCCCCCNC(=O)c1cnc(N(c2ccccc2)c2ccccc2Cl)nc1)NO [Compound A, 2-((2-chlorophenyl)(phenyl)amino)-N-(7-(hydroxyamino)-7-oxoheptyl)pyrimidine-5-carboxamide]
induced: cell surface abundance of CD20 (CD20 in Raji cells) | CD20 mRNA expression (CD20 mRNA in Raji cells) | cell surface abundance of CD20 (CD20 in Jeko cells) | CD20 mRNA expression (CD20 mRNA in Jeko cells)
